The source of these data is PubChem BioAssay (NCI).

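Briefly, cells in 96-well plates were exposed to five compound concentrations for 48 h, and endpoints were estimated by linear interpolation. TGI marks complete inhibition of growth.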

Experiment in all cases: DTP human tumour cell line panel, 48 h
The test system of test [1] is A498 renal.
Test [2] concerns EKVX NSCLC.
The subject of test [3] is HOP-92 NSCLC.
Test [4] deals with OVCAR-3 ovarian.
Test [5] deals with TK-10 renal.
For test [6], the system named is NCI-H23 lung.
The subject of test [7] is OVCAR-4 ovarian.
The subject of test [8] is RXF 393 renal.
Test [9] deals with CAKI-1 renal.
Test [10] concerns UO-31 renal.
Test [11] has as its system MALME-3M melanoma.
Test [12] concerns OVCAR-8 ovarian.
Test [13] has as its system PC-3 prostate.
Test [14] has as its system K-562 leukemia.
Test [15] deals with HL-60(TB) leukemia.

Usually TGI stands for the concentration giving total growth inhibition. Lower therefore signals greater sensitivity of the cells. Consider `Cc1nc2c(sc3nc4ccccc4n32)c(=O)[nH]1`, for which the TGI in test [1], in test [2], in test [3], in [4], in [5] and in test [6] was greater than 100 µM in each case. For the same molecule, the TGI in test [7], in test [8], in test [9], in test [10], in test [11] and in test [12] was greater than 100 µM each time. The same molecule came in with a TGI in test [13] greater than 100 µM.

Consider `Cn1c2ccccc2c(=NNc2ccc(C(=O)O)cc2)c2ccccc21`, for which the TGI was determined as 32.2 µM in test [2]; 57.7 µM in test [3]; 49.6 µM in test [4]; 62.4 µM in test [5]; 57.8 µM in test [6]; 49 µM in test [7]. Moreover, the TGI stood at 38 µM in [8]; 23.3 µM in test [14]; 48.6 µM in test [15]; 63.4 µM in test [9]; 46.9 µM in test [10]; 40.8 µM in test [11]. The values for the TGI in test [12] and in test [13] were 33.5 µM and 43.9 µM, respectively.

For `N#CC1(C#N)NC(c2ccsc2)C(C#N)(C#N)NC1c1ccsc1` (stereo not given), the total growth inhibition concentration (TGI) in test [1], in test [2], in test [3], in [4], in [5] and in [6] was greater than 100 µM throughout. The TGI in test [7], in test [14], in [15], in test [9], in test [10] and in test [11] was greater than 100 µM each time. The TGI in [12] and in test [13] was greater than 100 µM throughout.

As for `c1cc2c(c(-c3c4ccccc4nc4ccccc34)c1)CC1(CC2)OCCO1`, the total growth inhibition concentration (TGI) in [1], in test [2], in [3], in test [4], in test [5] and in test [6] was greater than 100 µM in each case. Moreover, the TGI in test [7], in test [8], in test [14], in [9], in test [10] and in test [11] was greater than 100 µM each time. For the same molecule, the TGI in test [12] and in test [13] was greater than 100 µM in each case.

Turning to `C=C1C(=O)OC2C1CC(O)/C(C)=C\CCC1(C)OC21` (stereo not given), the total growth inhibition concentration (TGI) is greater than 100 µM in [1]; greater than 100 µM in test [2]; greater than 100 µM in [3]; 34.1 µM in [4]; greater than 100 µM in test [5]; greater than 100 µM in test [6]. The TGI in test [7] was greater than 100 µM; in [8], 31.8 µM; in test [15] it was 83.8 µM; in test [10], 66.6 µM; in test [11], 45.4 µM; in test [12], greater than 100 µM. In addition, the TGI in test [13] was greater than 100 µM.

Take `Nc1nc(Cl)cc(Nc2cc(Cl)cc(Cl)c2)n1`: the TGI in test [1] turned out to be 44.3 µM; in test [2] it was 45.7 µM; in [3], 40.3 µM; in [4], 48.6 µM; in [5], 45 µM; in test [6], 48.6 µM. Also, the TGI in test [7] is 46.6 µM; in [8] it was 38.3 µM; in test [14], 81.3 µM; in test [9], 48.2 µM; in test [10], 36.5 µM; in test [11] it was 37.8 µM. The concentration for total growth inhibition (TGI) is 28.3 µM in [12] and 41.5 µM in [13].

Regarding `CCOC(=O)CCC(NC(=O)c1ccc(N2CCN(c3c(C)nc(N)nc3N)CC2)cc1)C(=O)OCC` (stereo not given), the concentration for total growth inhibition (TGI) in test [1], in test [2], in [3], in [4], in test [5] and in test [6] was greater than 100 µM throughout. The concentration for total growth inhibition (TGI) in test [7] is greater than 100 µM; in test [14], 0.844 µM; in [9] it was greater than 100 µM; in [10], greater than 100 µM; in test [11], greater than 100 µM; in test [12] it was greater than 100 µM. Further, the TGI in [13] is greater than 100 µM.

On to `O=[N+]([O-])c1cn[n+]([O-])c2ccccc12`, for which the TGI in test [1] amounted to 40.1 µM; in [2], 26.1 µM; in test [3], 28.4 µM; in test [4], 7.28 µM; in test [5] it was 25.8 µM; in test [6], 36.1 µM. The TGI amounted to 3.59 µM in test [15]; 8.1 µM in [9]; 29.4 µM in test [11]; 11.6 µM in [12]; 23.3 µM in test [13].

For `O=C(N/N=C\c1ccc2ccccc2c1)Nc1ccc([N+](=O)[O-])cc1`, the TGI in test [2] was greater than 100 µM; in test [3], 38.5 µM; in test [4], 55.4 µM; in test [5], greater than 55.9 µM; in test [6], greater than 72.3 µM; in [7] it was greater than 70.2 µM. For the same molecule, the TGI is greater than 79.2 µM in test [8]; greater than 100 µM in [14]; greater than 100 µM in test [15]; greater than 100 µM in [9]; greater than 59.3 µM in test [10]; greater than 70.9 µM in test [11]. Besides, the results for the TGI in test [12] and in test [13] were greater than 66.1 µM and greater than 73 µM, respectively.

For the molecule `N#Cc1ccc(OCc2nc3cc(C(F)(F)F)ccc3nc2-c2ccccc2)cc1`, the TGI in [1], in [2], in test [3], in test [4], in test [5] and in [6] was greater than 100 µM in each case. Besides, the TGI in [7], in test [15], in [9], in [10], in test [11] and in [12] was greater than 100 µM throughout. The molecule also showed a TGI in test [13] greater than 100 µM.

`O=S1C2=C(Cc3ccccc3)C(Cc3ccccc3)=C1CCc1cccc(c1)CC2`: the TGI in [2] amounted to 26.3 µM; in [3] it was 26.4 µM; in test [4] it was 23.5 µM; in test [5], 33.7 µM; in test [6] it was 28.2 µM; in test [7], 21.4 µM. Further, the TGI was 19.7 µM in [8]; greater than 100 µM in test [14]; 59.8 µM in test [15]; 28.7 µM in test [9]; 25.8 µM in test [10]; 32.5 µM in test [11]. Also, the total growth inhibition concentration (TGI) stood at 34 µM in test [12] and 29.3 µM in [13].

For the molecule `COc1ccc2c(c1)c1c(n2CCN2CCCCC2)-c2ccccc2CC1`, the TGI in test [2] came to 36.7 µM; in test [3] it was 31.9 µM; in [4], 33.8 µM; in test [5], 27.6 µM; in [6] it was 31.9 µM; in [7] it was 42 µM. The TGI in test [14] amounted to 45.9 µM; in [9], 26.9 µM; in [10], 26.1 µM; in test [11], 28.3 µM; in test [12] it was 29 µM; in [13], 30.3 µM.

For the molecule `O=C(CSCC(=O)N/N=C\c1ccc(-c2ccccc2)cc1)N/N=C\c1ccc(-c2ccccc2)cc1`, the concentration for total growth inhibition (TGI) in test [2] was greater than 100 µM; in test [3] it was greater than 100 µM; in test [4], 30 µM; in test [5] it was 64.2 µM; in test [6], 35.4 µM; in [7] it was 46.5 µM. Moreover, the TGI in test [8] was greater than 100 µM; in [14], greater than 100 µM; in test [9], greater than 100 µM; in test [10], greater than 100 µM; in test [11] it was 64.1 µM; in test [12], 58.2 µM. Moreover, the concentration for total growth inhibition (TGI) in [13] came out at 88.1 µM.

As to `Cc1cccc2c1NC(=S)[C@@H]1CCCN1C2=O`, the TGI in [1], in [2], in test [3], in [4], in test [5] and in test [6] was greater than 100 µM each time. Further, the TGI in [7], in [8], in test [14], in test [9], in test [10] and in test [11] was greater than 100 µM throughout. For the same molecule, the TGI in test [12] and in [13] was greater than 100 µM each time.

For `CC(C)CCn1c(=O)c2c(=O)[nH][nH]c2c2ccccc21`, the TGI in [1], in test [2], in test [3], in [4], in [5] and in test [6] was greater than 100 µM throughout. The TGI in [7], in test [14], in test [15], in test [10], in test [11] and in test [12] was greater than 100 µM in each case. This molecule also yielded a TGI in test [13] greater than 100 µM.

`COc1ccc(CC2NC(=O)/C=C/CC(C(C)C3OC3c3ccccc3)OC(=O)C(CC(C)C)OC(=O)C(C)CNC2=O)cc1Cl` (stereo not given): the TGI in [1] is 3.66e-05 µM; in [3], greater than 0.1 µM; in test [4], 0.000584 µM; in test [5], greater than 0.1 µM; in [6], greater than 0.1 µM; in test [7], greater than 0.1 µM. The total growth inhibition concentration (TGI) in [14] was greater than 0.0416 µM; in test [9], greater than 0.1 µM; in test [11], greater than 0.1 µM; in test [12] it was greater than 0.1 µM; in [13], greater than 0.1 µM.
